Experimental data reported in publication PMC4457358, “Structure–activity studies in the development of a hydrazone based inhibitor of adipose-triglyceride lipase (ATGL)” (Bioorganic & Medicinal Chemistry, 2015).

Legend:
[1] = biological target: T1, murine ATGL (Mus musculus, UniProt Q8BJ56); experiment: Triglyceride hydrolase activity assay with COS7-cell lysate overexpressing recombinant murine ATGL, radiolabelled triolein substrate; format: biochemical; design: IC50 (%): unit not given here; details: for inhibition at 200 µM: 1 h, read-out: I200 (%); for inhibition at 200 µM / I200 (%): ATGL-inhibition efficiency at 200 μM inhibitor; for IC50 (%): COS7-cell lysate overexpressing recombinant murine ATGL, increasing inhibitor concentrations; for biological activity against ATGL (in words) / IC50: COS7-cell lysate overexpressing murine ATGL;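 as to all read-outs here: radioactivity from the triolein substrate quantified by liquid scintillation counting after phase separation, reflecting triglyceride hydrolase activity of murine ATGL in lysates of transfected COS-7 cells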
T1 construct: expressed in transfected cells; host or cells: COS-7 (ATCC CRL-1651), transient transfection with Metafectene; crude lysate after 1000 x g spin
T1 sequence (Q8BJ56 1-486): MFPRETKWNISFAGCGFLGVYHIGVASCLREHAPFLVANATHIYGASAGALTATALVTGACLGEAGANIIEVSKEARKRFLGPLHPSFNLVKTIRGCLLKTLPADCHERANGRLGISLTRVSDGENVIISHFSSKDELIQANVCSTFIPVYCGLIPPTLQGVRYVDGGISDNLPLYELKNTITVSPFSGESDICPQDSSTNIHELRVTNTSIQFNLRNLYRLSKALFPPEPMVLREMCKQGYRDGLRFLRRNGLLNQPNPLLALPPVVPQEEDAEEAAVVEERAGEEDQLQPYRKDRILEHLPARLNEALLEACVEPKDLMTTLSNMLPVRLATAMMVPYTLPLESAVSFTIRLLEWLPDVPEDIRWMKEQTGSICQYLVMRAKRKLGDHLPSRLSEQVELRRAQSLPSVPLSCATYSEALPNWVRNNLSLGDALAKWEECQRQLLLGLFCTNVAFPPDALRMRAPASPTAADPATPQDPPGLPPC

Row | Compound | inhibition at 200 µM [1] | melting point | further results
1 | C(=N\N1CCN(c2ccccc2)CC1)/c1ccc2ccccc2c1 [Compound 2h, (E)-N-(Naphthalene-2-ylmethylen)-4-phenylpiperazin-1-amine] | < 1% | 195 to 198 °C (dec.) | –
2 | (E)-4-Phenyl-N-(4-propoxybenzylidene)piperazin-1-amine [Compound 1i] | – | – | I200 (%) [1]: 14%; IC50 (%) [1]: >200
3 | C(=N\N1CCN(c2ccccc2)CC1)/C1CCCCC1 [Compound 2c, (E)-N-(Cyclohexylmethylen)-4-phenylpiperazin-1-amine] | 49% | 69 to 71 °C | –
4 | Clc1ccc(/C=N/N2CCN(c3ccccc3)CC2)c(Cl)c1 [Compound 1o, (E)-N-(2,4-Dichlorobenzylidene)-4-phenylpiperazin-1-amine] | 42% | 113 to 115 °C | –
5 | (E)-N-(4-Phenoxybenzylidene)-4-phenylpiperazin-1-amine [Compound 1j] | – | – | I200 (%) [1]: 24%; IC50 (%) [1]: >200
6 | C(=N\N1CCN(c2ccccc2)CC1)/c1ccc2c(c1)OCCO2 [Compound 1y, (E)-N-((2,3-Dihydrobenzol[b][1,4]dioxin-6-yl)methylen)-4-phenylpiperazin-1-amine] | 27% | 186 to 187 °C | –
7 | C(=N\N1CCN(c2ccccc2)CC1)/c1ccccn1 [Compound 2e, (E)-4-Phenyl-N-(pyridine-2-ylmethylen)piperazin-1-amine] | 16% | 117 to 119 °C | –
8 | CN(C)c1ccc(/C=N/N2CCN(c3ccccc3)CC2)cc1 [Compound 1u, (E)-N-(4-(Dimethylamino)benzylidene)-4-phenylpiperazin-1-amine] | 5% | 190 °C (dec.) | –
9 | COc1ccc(C(=O)NN2CCN(c3ccccc3)CC2)cc1OC [Compound 10, 3,4-Dimethoxy-N-(4-phenylpiperazin-1-yl)benzamide] | 38% | – | biological activity against ATGL (in words) [1]: inactive
10 | CCC/C=C/C=N/N1CCN(c2ccccc2)CC1 [Compound 2b, (E)-N-((E)-Hex-2-enyliden)-4-phenylpiperazin-1-amine] | 12% | 48 °C | –
11 | C(=N\N1CCN(c2ccccc2)CC1)/c1cccc2ccccc12 [Compound 2j, (E)-N-(Naphthalene-1-methylen)-4-phenylpiperazin-1-amine] | 49% | 118 °C | –
12 | Brc1ccccc1/C=N/N1CCN(c2ccccc2)CC1 [Compound 1q, (E)-N-(2-Bromobenzylidene)-4-phenylpiperazin-1-amine] | 73% | 88 to 90 °C | –
13 | O=[N+]([O-])c1ccccc1/C=N/N1CCN(c2ccccc2)CC1 [Compound 1p, (E)-N-(2-Nitrobenzylidene)-4-phenylpiperazin-1-amine] | 60% | 103 to 106 °C | –
14 | C(=N\N1CCN(c2ccccc2)CC1)/c1cccnc1 [Compound 2f, (E)-4-Phenyl-N-(pyridine-3-ylmethylen)piperazin-1-amine] | 46% | 111 to 113 °C | –
15 | COc1cc(/C=N/N2CCN(c3ccccc3)CC2)cc(OC)c1OC [Compound 1l, (E)-4-Phenyl-N-(3,4,5-trimethoxybenzylidene)piperazin-1-amine] | 41% | 93 to 98 °C | –
16 | O=c1[nH]c2ccc(/C=N/N3CCN(c4ccccc4)CC3)cc2[nH]1 [Compound 1z, (E)-5-((4-Phenylpiperazin-1-ylimino)methyl)-1H-benzo[d]imidazol-2(3H)-one] | 16% | 320 to 330 °C (dec.) | –

Row | Compound | inhibition at 200 µM [1] | melting point | further results
17 | Oc1ccc(/C=N/N2CCN(c3ccc(F)cc3)CC2)c(O)c1 [Compound 3b, (E)-4-((4-(4-Fluorophenyl)piperazin-1-ylimino)methyl)benzene-1,3-diol] | 78% | 176 to 178 °C | IC50 [1]: 50 µM
18 | Oc1ccc(/C=N/N2CCC(c3ccccc3)CC2)c(O)c1 [Compound 3h, (E)-4-((4-Phenylpiperidine-1-ylimino)methyl)benzene-1,3-diol] | 81% | 139 to 142 °C | IC50 [1]: 40 µM
19 | Oc1ccc(/C=N/N2CCN(c3ccccc3)CC2)cc1 [Compound 1g, (E)-4-((4-Phenylpiperazin-1-ylimino)methyl)phenol] | 85% | 192 °C (dec.) | –
20 | Oc1ccc(/C=N/N2CCN(c3ccncc3)CC2)c(O)c1 [Compound 3a, (E)-4-((4-(Pyridine-4-yl)piperazin-1-ylimino)methyl)benzene-1,3-diol] | 19% | 270 to 273 °C (dec.) | –
21 | Oc1cccc(/C=N/N2CCN(c3ccccc3)CC2)c1 [Compound 1e, (E)-3-((4-Phenylpiperazin-1-ylimino)methyl)phenol] | 71% | 190 °C (dec.) | –
22 | C(=N\N1CCN(c2ccccc2)CC1)/c1ccc2c(c1)OCO2 [Compound 1x, (E)-N-(Benzo[d][1,3]dioxol-5-ylmethylen)-4-phenylpiperazin-1-amine] | 64% | 125 to 129 °C | –
23 | COc1ccc(NC(=O)N2CCN(c3ccccc3)CC2)cc1OC [Compound 12, N-(3,4-Dimethoxyphenyl)-4-phenylpiperazin-1-carboxamide] | 40% | 122 to 125 °C | biological activity against ATGL (in words) [1]: no biological activity
24 | Cc1ccc(/C=N/N2CCN(c3ccccc3)CC2)cc1 [Compound 1t, (E)-N-(4-Methylbenzylidene)-4-phenylpiperazin-1-amine] | 22% | 184 to 186 °C | biological activity against ATGL (in words) [1]: inactive
25 | N#Cc1ccc(/C=N/N2CCN(c3ccccc3)CC2)cc1 [Compound 1s, (E)-4-((4-Phenylpiperazin-1-ylimino)methyl)benzonitrile] | 76% | – | IC50 [1]: 50 µM
26 | CN(CCO)c1ccc(/C=N/N2CCN(c3ccccc3)CC2)cc1 [Compound 1w, (E)-2-(Methyl(4-((4-phenylpiperazin-1-ylimino)methyl)phenyl)amino)ethanol] | 5% | – | –
27 | (E)-3-((4-Phenylpiperazin-1-ylimino)methyl)benzonitrile [Compound 1r] | – | – | I200 (%) [1]: 60%; IC50 (%) [1]: 120
28 | Cc1cccc(N2CCN(/N=C/c3ccc(O)cc3O)CC2)c1 [Compound 3c, (E)-4-((4-m-Tolylpiperazin-1-ylimino)methyl)benzene-1,3-diol] | 44% | – | –
29 | COc1cc(/C=N/N2CCN(c3ccccc3)CC2)ccc1O [Compound 1d, (E)-2-Methoxy-4-((4-phenylpiperazin-1-ylimino)methyl)phenol] | 82% | – | –
30 | CC(=O)Nc1ccc(/C=N/N2CCN(c3ccccc3)CC2)cc1 [Compound 1v, (E)-N-(4-((4-Phenylpiperazin-1-ylimino)methyl)phenyl)acetamide] | 14% | – | –
31 | Oc1ccc(/C=N/N2CCCN(c3ccccc3)CC2)c(O)c1 [Compound 3j, (E)-4-((4-Phenyl-1,4-diazepan-1-ylimino)methyl)benzene-1,3-diol] | 87% | – | –
32 | CCCC/C=N/N1CCN(c2ccccc2)CC1 [Compound 2a, (E)-N-Pentyliden-4-phenylpiperazin-1-amine] | 12% | – | –
